# Results: patent US20230081426A1, “COMPOUNDS AND METHODS FOR KRAS MODULATION AND INDICATIONS THEREFOR” (Plexxikon Inc., priority 2020, published 2023)
# Experiments:
# [1] = target: T1, G12D-mutant human KRAS (amino acid residues 1-188) (Homo sapiens, UniProt P01116, G12D); assay: KRAS Binding Disruption Assay (AlphaScreen; biotinylated KRpep-2d analogue or RAF1-RBD), G12D; details: KRAS G12D; geometric mean; read-out: KRAS GMean IC50 (uM) MUTATION: G12D
# T1 construct: G12D or G12C-mutant human KRAS (amino acid residues 1-188) with FLAG tag; made in house; host or cells: E. coli
# Outline: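 Displacement format with mutant KRAS, biotinylated KRpep-2d analogue or RAF1-RBD (5-20 nM each) at pH 7.5 with 5 mM MgCl2.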
# [2] = target: T2, G12V-mutant human KRAS (amino acid residues 1-188) (Homo sapiens, UniProt P01116, G12V); assay: KRAS Binding Competition Assay (AlphaScreen; biotinylated KRpep-2d analogue), G12V; details: geometric mean, read-out: KRAS GMean IC50 (uM) MUTATION: G12V
# T2 construct: G12V-mutant human KRAS (amino acid residues 1-188) with FLAG tag was purified from E. coli; made in house; host or cells: E. coli
# Protocol: Compound binding disrupts the interaction of KRpep-2d with KRAS, leading to a decrease in Alpha signal.
# All assay components were prepared in 20 mM HEPES (pH 7.5), 100 mM NaCl, 5 mM MgCl2, 0.01% Tween-20, and 0.01% BSA. Biotinylated analogues of KRpep-2d were custom synthesized. The binding competition assays were performed using 10 nM of mutant KRAS and 10 nM of biotinylated KRpep-2d analogue. 19 μL of KRAS protein and 4 μL of biotinylated KRpep-2d were added to the wells of a 384-well plate containing 1 μL of various concentrations of test compound or DMSO vehicle. 16 wells containing KRAS, biotinylated KRpep-2d, and 5% DMSO served as high controls. 16 wells containing KRAS only and 5% DMSO served as low controls. Binding reactions were incubated for 1 hour at 25° C., then Anti-Flag Acceptor and Streptavidin Donor Alpha beads were added at a final concentration of 10 μg/mL for an additional hour at room temperature. Alpha signal was read out on a Perkin Elmer Envision HTS instrument. The percentage inhibition at individual compound concentrations relative to high and low controls was calculated. The data were analyzed by using nonlinear regression to generate IC50 values.
SMILES,IC50 [1] [µM],IC50 [2] [µM]
"CN1CCC[C@H]1COc1nc(N2C[C@H]3CC[C@@H](C2)N3)c2ccc(-c3nc(N)cc4ccccc34)c(F)c2n1 [P-0378, 1-(4-((1R,5S)-3,8-diazabicyclo[3.2.1]octan-3-yl)-8-fluoro-2-(((S)-1-methylpyrrolidin-2-yl)methoxy)quinazolin-7-yl)isoquinolin-3-amine]",0.0001 to 10,10 to 100
"CN1CCC[C@H]1COc1nc(N2C[C@H]3CC[C@@H](C2)N3CC(N)=O)c2ccc(-c3cc(O)cc4ccccc34)c(F)c2n1 [P-0144, 2-((1R,5S)-3-(8-fluoro-7-(3-hydroxynaphthalen-1-yl)-2-(((S)-1-methylpyrrolidin-2-yl)methoxy)quinazolin-4-yl)-3,8-diazabicyclo[3.2.1]octan-8-yl)acetamide]",0.0001 to 10,0.0001 to 10
"OCC(O)c1nc(N2C[C@H]3CC[C@@H](C2)N3)c2ccc(-c3cc(O)cc4ccccc34)c(F)c2n1 (stereo partly drawn) [P-0459, 1-(4-((1R,5S)-3,8-diazabicyclo[3.2.1]octan-3-yl)-8-fluoro-7-(3-hydroxynaphthalen-1-yl)quinazolin-2-yl)ethane-1,2-diol]",0.0001 to 10,0.0001 to 10
"CNC(=O)C(C)(C)COc1nc(N2C[C@H]3CC[C@@H](C2)N3)c2ccc(-c3cc(O)cc4ccccc34)c(F)c2n1 [P-0621, 3-((4-((1R,5S)-3,8-diazabicyclo[3.2.1]octan-3-yl)-8-fluoro-7-(3-hydroxynaphthalen-1-yl)quinazolin-2-yl)oxy)-N,2,2-trimethylpropanamide]",0.0001 to 10,10 to 100
"CN(C)CCCS(=O)(=O)N1[C@@H]2CC[C@H]1CN(c1nc(OC[C@@H]3CCCN3C)nc3c(F)c(-c4cc(O)cc5ccccc45)ccc13)C2 [P-0380, 4-(4-((1R,5S)-8-((3-(dimethylamino)propyl)sulfonyl)-3,8-diazabicyclo[3.2.1]octan-3-yl)-8-fluoro-2-(((S)-1-methylpyrrolidin-2-yl)methoxy)quinazolin-7-yl)naphthalen-2-ol]",0.0001 to 10,10 to 100
"N#Cc1ccc(CCc2nc(N3[C@@H]4CC[C@H]3CNC4)c3ccc(-c4cc(O)cc5ccccc45)cc3n2)cc1 [P-0197, 4-(2-(4-((1R,5S)-3,8-diazabicyclo[3.2.1]octan-8-yl)-7-(3-hydroxynaphthalen-1-yl)quinazolin-2-yl)ethyl)benzonitrile]",0.0001 to 10,10 to 100
"CN1CCC[C@H]1CNc1nc(N2C[C@H]3CC[C@@H](C2)N3)c2ccc(-c3cc(O)cc4ccccc34)cc2n1 [P-0016, 4-(4-((1R,5S)-3,8-diazabicyclo[3.2.1]octan-3-yl)-2-((((S)-1-methylpyrrolidin-2-yl)methyl)amino)quinazolin-7-yl)naphthalen-2-ol]",0.0001 to 10,10 to 100
"Cc1ccc2[nH]ncc2c1-c1ccc2c(N3C[C@H]4CC[C@@H](C3)N4)nc(OC[C@@H]3CCCN3C)nc2c1 [P-0161, 4-((1R,5S)-3,8-diazabicyclo[3.2.1]octan-3-yl)-7-(5-methyl-1H-indazol-4-yl)-2-(((S)-1-methylpyrrolidin-2-yl)methoxy)quinazoline]",0.0001 to 10,100 to 1000
"Cc1[nH]c2ccccc2c1-c1ccc2c(N3C[C@H]4CC[C@@H](C3)N4)nc(OCC34CCCN3CCC4)nc2c1F [P-0626, 4-((1R,5S)-3,8-diazabicyclo[3.2.1]octan-3-yl)-8-fluoro-7-(2-methyl-1H-indol-3-yl)-2-((tetrahydro-1H-pyrrolizin-7a(5H)-yl)methoxy)quinazoline]",0.0001 to 10,10 to 100
"CN1CCC[C@H]1COc1nc(N2C[C@H]3CC[C@@H](C2)N3)c2ccc(-c3cc(O)cc(C(F)(F)F)c3)cc2n1 [P-0179, 3-(4-((1R,5S)-3,8-diazabicyclo[3.2.1]octan-3-yl)-2-(((S)-1-methylpyrrolidin-2-yl)methoxy)quinazolin-7-yl)-5-(trifluoromethyl)phenol]",10 to 100,100 to 1000
"CC(C)(O)CNC(=O)N1[C@@H]2CC[C@H]1CN(c1nc(OCC34CCCN3CCC4)nc3cc(-c4cc(O)cc5ccccc45)ccc13)C2 [P-0141, (1R,5S)-N-(2-hydroxy-2-methylpropyl)-3-(7-(3-hydroxynaphthalen-1-yl)-2-((tetrahydro-1H-pyrrolizin-7a(5H)-yl)methoxy)quinazolin-4-yl)-3,8-diazabicyclo[3.2.1]octane-8-carboxamide]",0.0001 to 10,0.0001 to 10
"CN1CCC[C@H]1COc1nc(N2C[C@H]3CC[C@@H](C2)N3)c2ccc(-c3cc(N)cc(F)c3F)cc2n1 [P-0158, 3-(4-((1R,5S)-3,8-diazabicyclo[3.2.1]octan-3-yl)-2-(((S)-1-methylpyrrolidin-2-yl)methoxy)quinazolin-7-yl)-4,5-difluoroaniline]",10 to 100,10 to 100

# Second part, the compound after the results:
IC50 [1] [µM],IC50 [2] [µM],SMILES
10 to 100,100 to 1000,"Cc1cccc2c(Nc3ccc4c(N5C[C@H]6CC[C@@H](C5)N6)nc(OC[C@@H]5CCCN5C)nc4c3F)n[nH]c12 [P-0437, 4-((1R,5S)-3,8-diazabicyclo[3.2.1]octan-3-yl)-8-fluoro-N-(7-methyl-1H-indazol-3-yl)-2-(((S)-1-methylpyrrolidin-2-yl)methoxy)quinazolin-7-amine]"
10 to 100,10 to 100,"CN(C)Cc1nc(N2C[C@H]3CC[C@@H](C2)N3)c2cc(Cl)c(-c3c(O)cccc3F)c(F)c2n1 [P-0445, 2-(4-((1R,5S)-3,8-diazabicyclo[3.2.1]octan-3-yl)-6-chloro-2-((dimethylamino)methyl)-8-fluoroquinazolin-7-yl)-3-fluorophenol]"
0.0001 to 10,0.0001 to 10,"NC(=O)CCc1nc(N2[C@@H]3CC[C@H]2CNC3)c2ccc(-c3cc(O)cc4ccccc34)cc2n1 [P-0233, 3-(4-((1R,5S)-3,8-diazabicyclo[3.2.1]octan-8-yl)-7-(3-hydroxynaphthalen-1-yl)quinazolin-2-yl)propanamide]"
0.0001 to 10,0.0001 to 10,"CN1CC[C@@H](NS(=O)(=O)N2[C@@H]3CC[C@H]2CN(c2nc(OC[C@@H]4CCCN4C)nc4c(F)c(-c5cc(O)cc6ccccc56)ccc24)C3)C1 [P-0376, (1R,5S)-3-(8-fluoro-7-(3-hydroxynaphthalen-1-yl)-2-(((S)-1-methylpyrrolidin-2-yl)methoxy)quinazolin-4-yl)-N-((R)-1-methylpyrrolidin-3-yl)-3,8-diazabicyclo[3.2.1]octane-8-sulfonamide]"
10 to 100,100 to 1000,"CN1CCC[C@H]1COc1nc(N2[C@@H]3CC[C@H]2CN(C(=O)[C@H]2CCCN2)C3)c2ccc(-c3cc(O)cc4ccccc34)cc2n1 [P-0205, 4-((1R,5S)-3-(D-prolyl)-3,8-diazabicyclo[3.2.1]octan-8-yl)-7-(3-hydroxynaphthalen-1-yl)-2-(((S)-1-methylpyrrolidin-2-yl)methoxy)quinazoline]"
0.0001 to 10,0.0001 to 10,"CN1CC[C@@H](NC(=O)N2CC3CCCC2CN3c2nc(OC[C@@H]3CCCN3C)nc3c(F)c(-c4cc(O)cc5ccccc45)ccc23)C1 (stereo partly drawn) [P-0297, 8-(8-fluoro-7-(3-hydroxynaphthalen-1-yl)-2-(((S)-1-methylpyrrolidin-2-yl)methoxy)quinazolin-4-yl)-N-((R)-1-methylpyrrolidin-3-yl)-6,8-diazabicyclo[3.2.2]nonane-6-carboxamide]"
10 to 100,10 to 100,"O=C1c2ccccc2C(=O)N1Cc1nc(N2C[C@H]3CC[C@@H](C2)N3)c2cc(Cl)c(-c3c(O)cccc3F)c(F)c2n1 [P-0446, 2-((4-((1R,5S)-3,8-diazabicyclo[3.2.1]octan-3-yl)-6-chloro-8-fluoro-7-(2-fluoro-6-hydroxyphenyl)quinazolin-2-yl)methyl)isoindoline-1,3-dione]"
0.0001 to 10,0.0001 to 10,"O=C(N[C@H]1CCCNC1)N1[C@@H]2CC[C@H]1CN(c1nc(OCC34CCCN3CCC4)nc3cc(-c4cc(O)cc5ccccc45)ccc13)C2 [P-0142, (1R,5S)-3-(7-(3-hydroxynaphthalen-1-yl)-2-((tetrahydro-1H-pyrrolizin-7a(5H)-yl)methoxy)quinazolin-4-yl)-N-((S)-piperidin-3-yl)-3,8-diazabicyclo[3.2.1]octane-8-carboxamide]"
0.0001 to 10,0.0001 to 10,"CN1CCC[C@H]1COc1nc(N2CC3CCCC2CN3C(=O)NC2CCOC2)c2ccc(-c3cc(O)cc4ccccc34)c(F)c2n1 (stereo partly drawn) [P-0298, 8-(8-fluoro-7-(3-hydroxynaphthalen-1-yl)-2-(((S)-1-methylpyrrolidin-2-yl)methoxy)quinazolin-4-yl)-N-(tetrahydrofuran-3-yl)-6,8-diazabicyclo[3.2.2]nonane-6-carboxamide]"
